Data published in ChEMBL document CHEMBL4483862, “Open-source discovery of chemical leads for next-generation chemoprotective antimalarials” (2018).

Tested on: Plasmodium berghei
Assay: Luciferase/luciferin-expressing antifolate-resistant parasites were used to infect a culture of HepG2 cells that were pre-incubated with compounds. Infected hepatocytes emit light due to the luciferase reaction. Assay results are presented as the percent inhibition of light emission compared to control. […]
Type: functional
Settings: sporozoite; for IC90: read-out: LUCIFERASE INFECTION ASSAY - IC90

| SMILES | IC90 [µM] | further results |
| --- | --- | --- |
| COc1ccc(Nc2nc(S(=O)(=O)c3ccc(C)cc3)c(Cl)s2)cc1 | > 10 | IC50 (HEPG2TOX_HILL_SLOPE 11.4, HEPG2TOX_R_SQUARED 0.576, read-out: LUCIFERASE INFECTION ASSAY - IC50): > 10 µM |
| Cc1nc(Sc2nnnn2C)c2c3c(sc2n1)CCC3 | 4.17 | IC50 (HEPG2TOX_HILL_SLOPE 11.4, HEPG2TOX_R_SQUARED 0.852, PBLUC_HILL_SLOPE 13, PBLUC_R_SQUARED 0.536, read-out: LUCIFERASE INFECTION ASSAY - IC50): 3.52 µM |
| Clc1ccc2c(NC3CCN(Cc4ccccc4)CC3)ccnc2c1 | 8.05 | IC50 (HEPG2TOX_HILL_SLOPE 11.4, HEPG2TOX_R_SQUARED 0.805, PBLUC_HILL_SLOPE 13.2, 4.09, PBLUC_R_SQUARED 0.263, 0.797, read-out: LUCIFERASE INFECTION ASSAY - IC50): 5.96 µM |
| CC(=O)O[C@]1(C(C)=O)CCC2C3C[C@H](C)C4=CC(=O)CCC4(C)C3CCC21C (some centres undefined) | > 8.54 | IC50 (HEPG2TOX_HILL_SLOPE 11.5, HEPG2TOX_R_SQUARED 0.0757, read-out: LUCIFERASE INFECTION ASSAY - IC50): > 8.54 µM |
| CN(CC(=O)Nc1cccc(F)c1)C(=O)c1csc(COc2ccc(Cl)cc2)n1 | 6.38 | IC50 (HEPG2TOX_HILL_SLOPE 11.6, HEPG2TOX_R_SQUARED 0.266, PBLUC_HILL_SLOPE 151, PBLUC_R_SQUARED 0.192, read-out: LUCIFERASE INFECTION ASSAY - IC50): 6.29 µM |
| FC(F)(F)c1cc(Nc2nc(C(F)(F)F)cs2)cc(C(F)(F)F)c1 | 3.63 | IC50 (HEPG2TOX_HILL_SLOPE 11.5, HEPG2TOX_R_SQUARED 0.969, PBLUC_HILL_SLOPE 12.1, PBLUC_R_SQUARED 0.577, read-out: LUCIFERASE INFECTION ASSAY - IC50): 3.03 µM |
| COc1ccc(C(=O)/C=C/c2cccc(C#N)c2)cc1CN1CCCC1 | > 10 | IC50 (HEPG2TOX_HILL_SLOPE 11.5, HEPG2TOX_R_SQUARED 0.623, read-out: LUCIFERASE INFECTION ASSAY - IC50): > 10 µM |
| CCOC(=O)c1ccsc1NC(=O)CNc1ccc(Br)cc1 | > 10 | IC50 (HEPG2TOX_HILL_SLOPE 11.3, HEPG2TOX_R_SQUARED 0.575, read-out: LUCIFERASE INFECTION ASSAY - IC50): > 10 µM |
| COC(=O)c1c(NC(=O)c2cccnc2)c2cc(NCc3ccco3)cnc2n1Cc1ccccc1 | > 6.85 | IC50 (HEPG2TOX_HILL_SLOPE 11.5, HEPG2TOX_R_SQUARED 0.854, PBLUC_HILL_SLOPE 4.03, PBLUC_R_SQUARED 0.534, read-out: LUCIFERASE INFECTION ASSAY - IC50): 4.51 µM |
| O=C(Nc1cccc(Cl)c1)Nc1ccc2nc(-c3ccc(F)c(Cl)c3)nn2c1 | 7.37 | IC50 (HEPG2TOX_HILL_SLOPE 11.5, HEPG2TOX_R_SQUARED 0.414, PBLUC_HILL_SLOPE 109, PBLUC_R_SQUARED 0.131, read-out: LUCIFERASE INFECTION ASSAY - IC50): 7.23 µM |
| Cc1ccccc1NC(=S)N/N=C/c1ccccc1[N+](=O)[O-] | 3.66 | IC50 (HEPG2TOX_HILL_SLOPE 11.4, HEPG2TOX_R_SQUARED 0.668, PBLUC_HILL_SLOPE 15.4, PBLUC_R_SQUARED 0.358, read-out: LUCIFERASE INFECTION ASSAY - IC50): 3.17 µM |
| Cc1nn(-c2cccc(Cl)c2)c2nc(-c3ccccc3)c(-c3nc4ccccc4s3)c(-c3cccnc3)c12 | > 10 | IC50 (HEPG2TOX_HILL_SLOPE 11.2, HEPG2TOX_R_SQUARED 0.958, read-out: LUCIFERASE INFECTION ASSAY - IC50): > 10 µM |
| CC(=O)c1cccc(-c2cc3c(cn2)nc(NCc2ccccc2F)n3C)c1 | > 10 | IC50 (HEPG2TOX_HILL_SLOPE 11.4, HEPG2TOX_R_SQUARED 0.658, PBLUC_HILL_SLOPE 2.4, PBLUC_R_SQUARED 0.114, read-out: LUCIFERASE INFECTION ASSAY - IC50): 6.65 µM |
| CC(C)CC(N)c1csc(Nc2nncc3ccccc23)n1 (centres undefined) | 4.43 | IC50 (HEPG2TOX_HILL_SLOPE 11.3, HEPG2TOX_R_SQUARED 0.262, PBLUC_HILL_SLOPE 9.28, PBLUC_R_SQUARED 0.498, read-out: LUCIFERASE INFECTION ASSAY - IC50): 3.5 µM |
| COc1cc(-c2cc(-c3cc(C)c(O)c(C)c3)cnc2N)ccc1O | 3.93 | IC50 (HEPG2TOX_HILL_SLOPE 11.4, HEPG2TOX_R_SQUARED 0.062, PBLUC_HILL_SLOPE 8, PBLUC_R_SQUARED 0.677, read-out: LUCIFERASE INFECTION ASSAY - IC50): 2.99 µM |
| COc1ccc(C(C)C)cc1-c1cnc(N)c(-c2ccc(F)c(Cl)c2)c1 | > 8.9 | IC50 (HEPG2TOX_HILL_SLOPE 11.3, HEPG2TOX_R_SQUARED 0.599, PBLUC_HILL_SLOPE 2.08, PBLUC_R_SQUARED 0.63, read-out: LUCIFERASE INFECTION ASSAY - IC50): 3.98 µM |

| SMILES | IC90 [µM] | further results |
| --- | --- | --- |
| CCn1c(NC(=O)c2c(C)nn(-c3ccccc3)c2C)nc2ccccc21 | 9.89 | IC50 (HEPG2TOX_HILL_SLOPE 11.2, HEPG2TOX_R_SQUARED 0.651, PBLUC_HILL_SLOPE 20.8, PBLUC_R_SQUARED 0.508, read-out: LUCIFERASE INFECTION ASSAY - IC50): 8.9 µM |
| CC(NC(=O)c1cnn(-c2ccc(C(F)(F)F)cn2)c1C(F)(F)F)C1CC2CCC1C2 (centres undefined) | 5.3 | IC50 (HEPG2TOX_HILL_SLOPE 11.2, HEPG2TOX_R_SQUARED 0.292, PBLUC_HILL_SLOPE 7.94, PBLUC_R_SQUARED 0.51, read-out: LUCIFERASE INFECTION ASSAY - IC50): 4.02 µM |
| Cc1nnc(Sc2ncnc3scc(-c4ccccc4)c23)s1 | 6.88 | IC50 (HEPG2TOX_HILL_SLOPE 11.3, HEPG2TOX_R_SQUARED 0.507, PBLUC_HILL_SLOPE 5.22, PBLUC_R_SQUARED 0.122, read-out: LUCIFERASE INFECTION ASSAY - IC50): 4.52 µM |
| COc1ccc(-c2cncc(-c3ccc(O)c(OC)c3)n2)cc1 | 0.463 | IC50 (HEPG2TOX_HILL_SLOPE 11.5, HEPG2TOX_R_SQUARED 0.964, PBLUC_HILL_SLOPE 4.2, PBLUC_R_SQUARED 0.828, read-out: LUCIFERASE INFECTION ASSAY - IC50): 0.274 µM |
| CC(=O)Oc1ccc(-c2ccc(C(=O)OCC(=O)Nc3sccc3C(N)=O)cc2)cc1 | > 10 | IC50 (HEPG2TOX_HILL_SLOPE 11.3, HEPG2TOX_R_SQUARED 0.976, PBLUC_HILL_SLOPE 2.77, PBLUC_R_SQUARED 0.661, read-out: LUCIFERASE INFECTION ASSAY - IC50): 5.01 µM |
| FC(F)(F)Oc1ccc(-c2cnc3ccc(NCc4ccccn4)nn23)cc1 | 1.24 | IC50 (HEPG2TOX_HILL_SLOPE 11.3, HEPG2TOX_R_SQUARED 0.834, PBLUC_HILL_SLOPE 11.1, PBLUC_R_SQUARED 0.439, read-out: LUCIFERASE INFECTION ASSAY - IC50): 1.02 µM |
| Cc1cc(C(C)(C)C)cc(C)c1N1C(=O)C=CC1=O | > 12.8 | IC50 (HEPG2TOX_HILL_SLOPE 11.2, HEPG2TOX_R_SQUARED 0.888, PBLUC_HILL_SLOPE 4.45, PBLUC_R_SQUARED 0.621, read-out: LUCIFERASE INFECTION ASSAY - IC50): 8.96 µM |
| O=[N+]([O-])c1cc(-c2nc(-c3cc(C(F)(F)F)cc(C(F)(F)F)c3)no2)cs1 | > 8.06 | IC50 (HEPG2TOX_HILL_SLOPE 11.5, HEPG2TOX_R_SQUARED 0.674, read-out: LUCIFERASE INFECTION ASSAY - IC50): > 8.06 µM |
| CCN1CCC[C@H]1CNC(=O)C(C)c1ccc2c(c1)[nH]c1ccc(Cl)cc12 (some centres undefined) | 5.54 | IC50 (HEPG2TOX_HILL_SLOPE 11.5, HEPG2TOX_R_SQUARED 0.93, PBLUC_HILL_SLOPE 6.18, PBLUC_R_SQUARED 0.807, read-out: LUCIFERASE INFECTION ASSAY - IC50): 3.88 µM |
| Cc1cc(Nc2ccc3c(=O)c(-c4c(F)cccc4Cl)c(C)oc3c2)no1 | > 10 | IC50 (HEPG2TOX_HILL_SLOPE 11.5, HEPG2TOX_R_SQUARED 0.0504, PBLUC_HILL_SLOPE 0.784, PBLUC_R_SQUARED 0.684, read-out: LUCIFERASE INFECTION ASSAY - IC50): 1.11 µM |
| O=C(COc1ccccc1C(=O)Nc1nc(-c2ccccc2)cs1)Nc1cccc(C(F)(F)F)c1 | 5.93 | IC50 (HEPG2TOX_HILL_SLOPE 11.2, HEPG2TOX_R_SQUARED 0.982, PBLUC_HILL_SLOPE 4.71, PBLUC_R_SQUARED 0.747, read-out: LUCIFERASE INFECTION ASSAY - IC50): 3.72 µM |
| O=C(Nc1ccc(-c2nc3ccccc3[nH]2)cc1)c1ccc2c(=O)n3c(nc2c1)CCCCCC3 | 4.15 | IC50 (HEPG2TOX_HILL_SLOPE 11.2, HEPG2TOX_R_SQUARED 0.937, PBLUC_HILL_SLOPE 12.6, PBLUC_R_SQUARED 0.815, read-out: LUCIFERASE INFECTION ASSAY - IC50): 3.48 µM |
| O=[N+]([O-])c1ccc(-c2nnc(SCc3c(Cl)cccc3Cl)o2)o1 | 8.84 | IC50 (HEPG2TOX_HILL_SLOPE 11.4, HEPG2TOX_R_SQUARED 0.952, PBLUC_HILL_SLOPE 3.38, PBLUC_R_SQUARED 0.564, read-out: LUCIFERASE INFECTION ASSAY - IC50): 4.61 µM |
| NC(=O)NC(CC(=O)Nc1ccc2c(c1)-c1ccccc1C2)c1ccccc1 (centres undefined) | > 10 | IC50 (HEPG2TOX_HILL_SLOPE 11.3, HEPG2TOX_R_SQUARED 0.75, PBLUC_HILL_SLOPE 2.98, PBLUC_R_SQUARED 0.106, read-out: LUCIFERASE INFECTION ASSAY - IC50): 6.7 µM |
| Cc1ccc(NC(=S)NC2CCCCCCCCCCC2)cc1Cl | 8.43 | IC50 (HEPG2TOX_HILL_SLOPE 11.3, HEPG2TOX_R_SQUARED 0.761, PBLUC_HILL_SLOPE 19.1, PBLUC_R_SQUARED 0.333, read-out: LUCIFERASE INFECTION ASSAY - IC50): 7.51 µM |
| O=C(Nc1ccc(SC(F)(F)F)cc1)Nc1cccnc1N1CCC(C(F)(F)F)CC1 | 2.33 | IC50 (HEPG2TOX_HILL_SLOPE 11.5, HEPG2TOX_R_SQUARED 0.688, PBLUC_HILL_SLOPE 15.9, PBLUC_R_SQUARED 0.276, read-out: LUCIFERASE INFECTION ASSAY - IC50): 2.03 µM |
